Read-outs that look alike come from different tables or passages of the source.
How the values were obtained:
CLK2 = CLK2 (Homo sapiens (Human), UniProt P49760); assay: CLK kinase activity assay (ADP-Glo); format: biochemical
Method: (§1) Kinase protein and substrate were pre-diluted in the HEPES assay buffer (100 mM HEPES, pH 7.5, 0.01% Triton X-100, 0.1% BSA, 5 mM MgCl2, 1 mM DTT, 10 μM Sodium Orthovanadate, 10 μM Beta-Glycerophosphate) dispensed into 384 well plate (5 μL per well). Control samples (0%-inhibition in the absence of inhibitor, DMSO only) and 100%-inhibition (in the absence of enzyme) were assembled in replicates of six and were used to calculate %-inhibition in the presence of compounds. Test compounds were added to the protein samples by acoustic dispensing (Labcyte Echo550). Concentration of DMSO was equalized to 1% in all samples. Reactions were initiated by addition of ATP by acoustic dispensing (Labcyte Echo550) and incubated according to assay specific incubation time. After incubation, 5 uL of Promega ADP-Glo reagent was added and incubated for 40 minutes. After 40 minutes, 10 uL of Promega kinase detection reagent was added. After 10 min of incubation with Kinase detection reagent, the luminescence was read on microplate reader (Biotek Synergy).

CLK3 = CLK3 (Homo sapiens (Human), UniProt P49761); assay: CLK kinase activity assay (ADP-Glo); format: biochemical
Method: as §1

CLK1 = CLK1 (Homo sapiens (Human), UniProt P49759); assay: CLK kinase activity assay (ADP-Glo); format: biochemical
Method: as §1

CLK4 = CLK4 (Homo sapiens (Human), UniProt Q9HAZ1); assay: CLK kinase activity assay (ADP-Glo); format: biochemical
Method: as §1

MV-4-11 cells = assay: MV-4-11 cell proliferation assay (CellTiter-Glo 2.0); format: cell-based; conditions: MV-4-11, 384-well, 11-dose dilution series, read-out: IC50, inhibition of MV-4-11 cell proliferation
Method: MV-4-11 cell line was purchased from ATCC and maintained in RPMI medium supplemented with 10% fetal bovine serum and 100 U/mL of penicillin/streptomycin. One thousand MV-4-11 cells/50 μl per well were seeded in white 384-well plate, followed by treatment with indicated compounds in a 11-dose dilution series. Cell proliferation was measured using CellTiter-Glo 2.0 luciferase-based ATP detection assay (Promega, Madison, WI) following the manufacturer's protocol. Plates were then read on a TECAN Sparks multimode microplate reader. Data was analyzed using GraphPad Prism 9 (GraphPad Software, San Diego, CA) to obtain IC50 values.

FLT3 = FLT3 (Homo sapiens (Human), UniProt P36888); assay: HotSpot radiometric kinase assay (Reaction Biology); format: biochemical
FLT3-ITD = FLT3-ITD (Homo sapiens, UniProt P36888, ITD); assay: as above; format: biochemical
Sequence of FLT3-ITD (P36888 whole entry, looked up, change not shown): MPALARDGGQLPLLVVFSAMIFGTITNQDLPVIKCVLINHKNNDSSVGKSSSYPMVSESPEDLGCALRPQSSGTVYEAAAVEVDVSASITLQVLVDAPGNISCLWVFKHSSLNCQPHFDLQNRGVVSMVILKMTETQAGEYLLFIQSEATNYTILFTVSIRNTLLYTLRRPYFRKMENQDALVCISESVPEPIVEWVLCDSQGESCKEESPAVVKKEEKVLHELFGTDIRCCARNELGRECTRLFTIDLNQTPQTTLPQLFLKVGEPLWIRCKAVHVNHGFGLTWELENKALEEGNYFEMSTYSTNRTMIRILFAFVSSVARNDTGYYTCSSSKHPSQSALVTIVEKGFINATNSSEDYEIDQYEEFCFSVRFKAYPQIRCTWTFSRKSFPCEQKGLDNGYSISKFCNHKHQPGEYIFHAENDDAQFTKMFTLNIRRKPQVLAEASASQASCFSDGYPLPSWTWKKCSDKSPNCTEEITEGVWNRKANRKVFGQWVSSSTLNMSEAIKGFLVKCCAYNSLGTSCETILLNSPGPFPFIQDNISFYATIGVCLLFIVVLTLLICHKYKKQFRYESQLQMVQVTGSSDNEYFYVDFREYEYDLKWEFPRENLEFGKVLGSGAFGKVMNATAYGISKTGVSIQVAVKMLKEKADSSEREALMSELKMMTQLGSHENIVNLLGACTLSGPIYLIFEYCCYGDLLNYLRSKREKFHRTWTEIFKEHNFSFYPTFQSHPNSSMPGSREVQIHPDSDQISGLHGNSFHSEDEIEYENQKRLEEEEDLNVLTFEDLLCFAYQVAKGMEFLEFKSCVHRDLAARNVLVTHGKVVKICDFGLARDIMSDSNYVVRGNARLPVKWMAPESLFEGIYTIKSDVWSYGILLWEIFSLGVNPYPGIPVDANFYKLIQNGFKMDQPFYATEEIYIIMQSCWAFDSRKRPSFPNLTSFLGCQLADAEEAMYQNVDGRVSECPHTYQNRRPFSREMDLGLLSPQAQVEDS

Sequence of FLT3 (P36888 27-993): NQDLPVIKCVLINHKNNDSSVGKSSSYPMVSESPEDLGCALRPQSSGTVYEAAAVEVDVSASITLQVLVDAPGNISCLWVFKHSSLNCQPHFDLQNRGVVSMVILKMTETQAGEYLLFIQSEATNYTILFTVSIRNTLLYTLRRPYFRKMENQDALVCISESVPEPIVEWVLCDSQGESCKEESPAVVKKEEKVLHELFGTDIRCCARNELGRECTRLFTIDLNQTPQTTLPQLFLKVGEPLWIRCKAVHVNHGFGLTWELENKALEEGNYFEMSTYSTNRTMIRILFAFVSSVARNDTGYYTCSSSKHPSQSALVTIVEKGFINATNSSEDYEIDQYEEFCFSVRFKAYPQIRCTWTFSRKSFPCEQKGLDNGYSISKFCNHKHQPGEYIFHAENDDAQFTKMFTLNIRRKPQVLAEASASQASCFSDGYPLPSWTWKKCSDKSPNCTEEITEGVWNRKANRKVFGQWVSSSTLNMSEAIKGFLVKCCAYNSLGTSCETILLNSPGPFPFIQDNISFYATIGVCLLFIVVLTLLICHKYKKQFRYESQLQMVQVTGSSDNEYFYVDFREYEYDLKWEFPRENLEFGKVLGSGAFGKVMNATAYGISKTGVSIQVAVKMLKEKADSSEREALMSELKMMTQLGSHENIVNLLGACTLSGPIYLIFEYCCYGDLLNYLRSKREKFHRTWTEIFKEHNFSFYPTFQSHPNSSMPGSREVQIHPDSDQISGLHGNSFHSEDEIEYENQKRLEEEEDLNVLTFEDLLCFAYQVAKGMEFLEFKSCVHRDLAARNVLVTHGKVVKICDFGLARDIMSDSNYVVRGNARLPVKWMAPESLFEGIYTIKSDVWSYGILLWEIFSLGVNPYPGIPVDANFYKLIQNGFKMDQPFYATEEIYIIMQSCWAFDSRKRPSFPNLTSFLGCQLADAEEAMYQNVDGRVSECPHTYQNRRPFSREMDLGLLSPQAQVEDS
Sequence of CLK4 (Q9HAZ1 whole entry): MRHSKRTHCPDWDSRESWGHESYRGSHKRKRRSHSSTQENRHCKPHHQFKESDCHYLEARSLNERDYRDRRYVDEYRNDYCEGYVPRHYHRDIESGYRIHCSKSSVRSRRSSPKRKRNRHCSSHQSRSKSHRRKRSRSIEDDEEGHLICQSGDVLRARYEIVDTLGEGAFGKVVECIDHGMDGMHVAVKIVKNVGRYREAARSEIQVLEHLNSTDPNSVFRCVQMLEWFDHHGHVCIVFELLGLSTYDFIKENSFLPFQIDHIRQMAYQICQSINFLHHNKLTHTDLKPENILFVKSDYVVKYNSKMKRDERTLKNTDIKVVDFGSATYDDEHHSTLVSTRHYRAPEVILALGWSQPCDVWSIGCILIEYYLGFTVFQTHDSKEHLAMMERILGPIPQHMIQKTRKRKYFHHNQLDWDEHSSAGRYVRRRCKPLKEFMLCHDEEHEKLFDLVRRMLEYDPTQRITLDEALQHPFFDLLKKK
Sequence of CLK2 (P49760 whole entry): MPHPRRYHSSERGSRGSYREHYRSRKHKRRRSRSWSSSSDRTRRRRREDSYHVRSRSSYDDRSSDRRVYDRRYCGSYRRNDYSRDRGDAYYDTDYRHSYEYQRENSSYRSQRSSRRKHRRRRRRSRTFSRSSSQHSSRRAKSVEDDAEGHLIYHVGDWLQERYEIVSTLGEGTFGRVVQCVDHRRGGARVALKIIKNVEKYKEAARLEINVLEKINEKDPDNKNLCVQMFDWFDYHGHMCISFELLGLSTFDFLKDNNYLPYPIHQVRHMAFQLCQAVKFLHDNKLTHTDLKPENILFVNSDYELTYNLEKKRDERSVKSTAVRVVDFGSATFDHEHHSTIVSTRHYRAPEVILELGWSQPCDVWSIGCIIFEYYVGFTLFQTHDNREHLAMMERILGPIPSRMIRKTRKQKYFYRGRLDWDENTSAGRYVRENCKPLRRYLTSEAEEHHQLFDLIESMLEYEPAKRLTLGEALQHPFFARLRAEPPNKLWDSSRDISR
Sequence of CLK3 (P49761 whole entry): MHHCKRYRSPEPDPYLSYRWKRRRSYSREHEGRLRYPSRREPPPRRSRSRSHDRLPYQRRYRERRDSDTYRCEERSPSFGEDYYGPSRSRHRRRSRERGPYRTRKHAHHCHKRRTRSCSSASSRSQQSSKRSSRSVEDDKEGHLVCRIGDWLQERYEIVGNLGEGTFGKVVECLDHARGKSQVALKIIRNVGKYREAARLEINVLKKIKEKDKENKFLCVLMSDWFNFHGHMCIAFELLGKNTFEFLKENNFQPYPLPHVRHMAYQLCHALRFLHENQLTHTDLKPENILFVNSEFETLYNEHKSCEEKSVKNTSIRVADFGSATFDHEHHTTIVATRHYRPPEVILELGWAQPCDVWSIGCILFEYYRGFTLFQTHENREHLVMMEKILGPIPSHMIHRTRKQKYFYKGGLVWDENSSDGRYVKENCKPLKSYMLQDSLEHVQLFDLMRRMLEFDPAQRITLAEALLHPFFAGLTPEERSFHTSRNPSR
Sequence of CLK1 (P49759 whole entry): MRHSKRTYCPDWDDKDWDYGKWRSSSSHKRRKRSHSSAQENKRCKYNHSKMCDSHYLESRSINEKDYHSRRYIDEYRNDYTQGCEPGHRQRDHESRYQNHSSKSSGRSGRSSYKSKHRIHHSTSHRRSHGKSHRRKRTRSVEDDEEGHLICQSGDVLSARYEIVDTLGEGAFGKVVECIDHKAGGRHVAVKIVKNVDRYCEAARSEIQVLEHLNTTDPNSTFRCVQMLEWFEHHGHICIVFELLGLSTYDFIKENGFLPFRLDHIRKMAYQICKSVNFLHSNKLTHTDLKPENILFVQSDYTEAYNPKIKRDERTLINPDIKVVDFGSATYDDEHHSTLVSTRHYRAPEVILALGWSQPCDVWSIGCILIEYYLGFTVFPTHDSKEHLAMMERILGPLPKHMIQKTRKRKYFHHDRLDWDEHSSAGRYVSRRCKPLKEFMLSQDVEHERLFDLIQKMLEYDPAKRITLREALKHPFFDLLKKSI

Compound	IC50 (CLK2)	IC50 (CLK3)	IC50 (CLK1)	IC50 (CLK4)	IC50 (MV-4-11 cells; Homo sapiens, MV4-11)	IC50 (FLT3)	IC50 (FLT3-ITD)	IC50 (MV-4-11 cells)
(18E)-15-(2-hydroxyethyl)-8,10,13,17-tetramethyl-2,8,9,10,11,12,13,15-octahydro-14H-3,5-ethenotripyrazolo[3,4-f:3′,4′-j:4″,3″-n][1,4]diazacyclohexadecin-14-one [Ex. 26]	0.386 nM	31.1 nM	0.233 nM	0.605 nM	–	–	–	15 nM
CCc1c2c(nn1C)C(=O)N(C)CCOc1ccc(F)cc1-c1ccc3[nH]nc(c3c1)/C=C/2 [Ex. 1, (18E)-17-ethyl-7-fluoro-13,16-dimethyl-2,12,13,16-tetrahydro-3,5-ethenodipyrazolo[3,4-f:3′,4′-j][1,4]benzoxazacyclopentadecin-14(11H)-one]	–	–	–	–	1160 nM	–	–	–
[2H]C([2H])([2H])N1CCOc2c(cnn2C)-c2ccc3[nH]nc(c3c2)/C=C/c2c(CC)nn(C([2H])([2H])[2H])c2C1=O [compound 21, (17E)-16-ethyl-8-methyl-12,14-bis[(^2H3)methyl]-2,11,12,14-tetrahydro-8H-3,5-ethenotripyrazolo[3,4-f:3′,4′-j:4″,3″-n][1,4]oxazacyclopentadecin-13(10H)-one]	–	–	–	–	< 0.2 nM	–	–	–
Cc1nn(CCN2CCCC2)c2c1/C=C/c1n[nH]c3ccc(cc13)-c1cnn(C)c1OCCN(C)C2=O [Ex. 18, (17E)-8,12,16-trimethyl-14-[2-(pyrrolidin-1-yl)ethyl]-2,11,12,14-tetrahydro-8H-3,5-ethenotripyrazolo[3,4-f:3′,4′-j:4″,3″-n][1,4]oxazacyclopentadecin-13(10H)-one]	–	–	–	–	17.8 nM	–	–	–
CCc1noc2c1/C=C/c1n[nH]c3ccc(cc13)-c1cnn(C)c1OCCN(C)C2=O [Ex. 25, (17E)-16-ethyl-8,12-dimethyl-2,8,11,12-tetrahydro-3,5-etheno[1,2]oxazolo[5,4-f]dipyrazolo[3,4-j:4′,3′-n][1,4]oxazacyclopentadecin-13(10H)-one]	–	–	–	–	0.52 nM	–	–	–
Cc1c2c(nn1C)C(=O)NCCOc1c(cnn1C)-c1ccc3[nH]nc(c3c1)/C=C/2 [Ex. 10, (17E)-8,15,16-trimethyl-2,11,12,15-tetrahydro-8H-3,5-ethenotripyrazolo[3,4-f:3′,4′-j:4″,3″-n][1,4]oxazacyclopentadecin-13(10H)-one]	–	–	–	–	865 nM	–	–	–
CCOc1nn(CCO)c2c1/C=C/c1n[nH]c3ccc(cc13)-c1cnn(C)c1OCCN(C)C2=O [Ex. 27, (17E)-16-ethoxy-14-(2-hydroxyethyl)-8,12-dimethyl-2,11,12,14-tetrahydro-8H-3,5-ethenotripyrazolo[3,4-f:3′,4′-j:4″,3″-n][1,4]oxazacyclopentadecin-13(10H)-one]	1.11 nM	108 nM	1.55 nM	3.03 nM	7.6 nM	–	–	–
CCc1c2c(nn1C)C(=O)N(C)CCOc1ccc(F)cc1-c1cc(Cl)c3[nH]nc(c3c1)/C=C/2 [compound 5, (18E)-21-chloro-17-ethyl-7-fluoro-13,16-dimethyl-2,12,13,16-tetrahydro-3,5-ethenodipyrazolo[3,4-f:3′,4′-j][1,4]benzoxazacyclopentadecin-14(11H)-one]	–	–	–	–	> 10000 nM	–	–	–
CCc1nn(C)c2c1/C=C/c1n[nH]c3ccc(cc13)-c1cc(F)ccc1OCCN(C)C2=O [Ex. 2, (18E)-17-ethyl-7-fluoro-13,15-dimethyl-2,12,13,15-tetrahydro-3,5-ethenodipyrazolo[3,4-f:3′,4′-j][1,4]benzoxazacyclopentadecin-14(11H)-one]	–	–	–	–	353 nM	–	–	–
Cc1c2c(nn1CCN1CCCC1)C(=O)N(C)CCOc1c(cnn1C)-c1ccc3[nH]nc(c3c1)/C=C/2 [Ex. 19, (17E)-8,12,16-trimethyl-15-[2-(pyrrolidin-1-yl)ethyl]-2,11,12,15-tetrahydro-8H-3,5-ethenotripyrazolo[3,4-f:3′,4′-j:4″,3″-n][1,4]oxazacyclopentadecin-13(10H)-one]	–	–	–	–	15.2 nM	0.564 nM	1.05 nM	–
Cc1nn(C)c2c1/C=C/c1n[nH]c3ccc(cc13)-c1cnn(C)c1CN(C)CCN(C)C2=O [Ex. 15, (18E)-8,10,13,15,17-pentamethyl-2,8,9,10,11,12,13,15-octahydro-14H-3,5-ethenotripyrazolo[3,4-f:3′,4′-j:4″,3″-n][1,4]diazacyclohexadecin-14-one]	0.161 nM	2.77 nM	0.157 nM	0.53 nM	4.6 nM	–	–	–
CCc1nn(C)c2c1/C=C/c1n[nH]c3ccc(cc13)-c1cnn(C)c1O[C@@H](C)CN(C)C2=O [Ex. 23, (10S,17E)-16-ethyl-8,10,12,14-tetramethyl-2,11,12,14-tetrahydro-8H-3,5-ethenotripyrazolo[3,4-f:3′,4′-j:4″,3″-n][1,4]oxazacyclopentadecin-13(10H)-one]	0.225 nM	5.53 nM	0.843 nM	1.39 nM	4.1 nM	0.416 nM	0.967 nM	–

Second part, led by results:

IC50 (CLK2)	IC50 (CLK3)	IC50 (CLK1)	IC50 (CLK4)	IC50 (MV-4-11 cells; Homo sapiens, MV4-11)	IC50 (FLT3)	IC50 (FLT3-ITD)	Compound	IC50 (MV-4-11 cells)
0.16 nM	10.4 nM	0.299 nM	0.758 nM	< 1 nM	–	–	Cc1nn(CCO)c2c1/C=C/c1n[nH]c3ccc(cc13)-c1cnn(C)c1OCCN(C)C2=O [Ex. 16, (17E)-14-(2-hydroxyethyl)-8,12,16-trimethyl-2,11,12,14-tetrahydro-8H-3,5-ethenotripyrazolo[3,4-f:3′,4′-j:4″,3″-n][1,4]oxazacyclopentadecin-13(10H)-one]	–
–	–	–	–	384 nM	–	–	Cc1nn(C)c2c1/C=C/c1n[nH]c3ccc(cc13)-c1cnn(C)c1OCCOCCN(C)C2=O [compound 14, (15E)-3,10,12,14-tetramethyl-5,6,9,10,12,18-hexahydro-3H-19,21-ethenotripyrazolo[3,4-i:3′,4′-m:4″,3″-q][1,4,7]dioxazacyclooctadecin-11(8H)-one]	–
–	–	–	–	15.5 nM	–	–	Cc1nn(C)c2c1/C=C/c1n[nH]c3ccc(cc13)-c1cnn(C)c1OCCCN(C)C2=O [Ex. 13, (18E)-8,13,15,17-tetramethyl-2,10,11,12,13,15-hexahydro-3,5-ethenotripyrazolo[3,4-g:3′,4′-k:4″,3″-o][1,5]oxazacyclohexadecin-14(8H)-one]	–
0.253 nM	9.47 nM	0.355 nM	0.668 nM	< 0.2 nM	0.093 nM	0.527 nM	CCOc1nn(C)c2c1/C=C/c1n[nH]c3ccc(cc13)-c1cnn(C)c1OCCN(C)C2=O [Ex. 22, (17E)-16-ethoxy-8,12,14-trimethyl-2,11,12,14-tetrahydro-8H-3,5-ethenotripyrazolo[3,4-f:3′,4′-j:4″,3″-n][1,4]oxazacyclopentadecin-13(10H)-one]	–
–	–	–	–	21.2 nM	–	–	CN1CCOc2c(cnn2C)-c2ccc3[nH]nc(c3c2)/C=C/c2cn(C)nc2C1=O [compound 4, (17E)-8,12,15-trimethyl-2,11,12,15-tetrahydro-8H-3,5-ethenotripyrazolo[3,4-f:3′,4′-j:4″,3″-n][1,4]oxazacyclopentadecin-13(10H)-one]	–
0.67 nM	92.9 nM	0.415 nM	0.593 nM	141 nM	0.23 nM	0.475 nM	CN1CCOc2c(cnn2C)-c2ccc3[nH]nc(c3c2)/C=C/c2c(C#N)nn(C)c2C1=O [Ex. 24, (17E)-8,12,14-trimethyl-13-oxo-2,10,11,12,13,14-hexahydro-8H-3,5-ethenotripyrazolo[3,4-f:3′,4′-j:4″,3″-n][1,4]oxazacyclopentadecine-16-carbonitrile]	–
–	–	–	–	1.1 nM	0.187 nM	0.775 nM	Cc1nn(C(C)C)c2c1/C=C/c1n[nH]c3ccc(cc13)-c1cnn(C)c1OCCN(C)C2=O [compound 20, (17E)-8,12,16-trimethyl-14-(propan-2-yl)-2,11,12,14-tetrahydro-8H-3,5-ethenotripyrazolo[3,4-f:3′,4′-j:4″,3″-n][1,4]oxazacyclopentadecin-13(10H)-one]	–
–	–	–	–	< 0.2 nM	–	–	CCn1nc(C)c2c1C(=O)N(C)CCOc1c(cnn1C)-c1ccc3[nH]nc(c3c1)/C=C/2 [compound 11, (17E)-14-ethyl-8,12,16-trimethyl-2,11,12,14-tetrahydro-8H-3,5-ethenotripyrazolo[3,4-f:3′,4′-j:4″,3″-n][1,4]oxazacyclopentadecin-13(10H)-one]	–
